Article PMC11833248, “Evolutionary and Functional Analysis of Monoamine Oxidase F: A Novel Member of the Monoamine Oxidase Gene Family” (Genome Biology and Evolution, 2025)
Where two headings read alike, the source gives them in different places.

Experiments:
IPT-MAO A/B [1] = test system: T1, IPT-MAO A/B; assay: HRP-coupled spectrophotometric assay of H2O2, […] nm; type: biochemical, Megalops cyprinoides; settings: 25 °C, 50 mM Hepes/NaOH pH 7.5, 0.5% v/v reduced Triton X-100; read-out: IPT-MAO A/B / K M / Human MAOB
T1 construct: full length 522 residues (borders given for the mammalian construct); N-terminal 6xHis; Pichia pastoris KM71; detergent-solubilized, FOS-choline-12

IPT-MAO A/B [2] = settings: read-out: IPT-MAO A/B / K M / Human MAOB; 25 °C, 50 mM Hepes/NaOH pH 7.5, 0.5% v/v reduced Triton X-100

SMILES | Km (IPT-MAO A/B [1]) | Km (IPT-MAO A/B [2])
NCCc1ccc(O)cc1 [Tyramine] | 200 ± 40 µM | 
NCCc1ccccc1 [Phenethylamine] | 70 ± 10 µM | 
NCCC(=O)c1ccccc1N [Kynuramine] | 30 ± 4 µM | 
NCCc1c[nH]c2ccc(O)cc12 [Serotonin] |  | 100 ± 10 µM
NCCc1ccc(O)c(O)c1 [Dopamine] |  | 300 ± 30 µM
NCc1ccccc1 [Benzylamine] | 50 ± 10 µM | 
